# Key:
# [1] = system: FADD-deficient variant of human Jurkat T cells; assay: Necroptosis inhibition in FADD-deficient Jurkat T cells treated with TNF-α, ATP-based viability; assay type: cell-based; conditions: for EC50: Jurkat, 10 ng/mL human TNF-α, 24 hours; for necroptosis inhibitory activity in words: TNF-α treated FADD-deficient Jurkat T cells
# Description: Stock solutions (30 mM) in DMSO were initially prepared and then diluted with DMSO to give testing solutions, which were added to each test well. The final DMSO concentration was 0.5%. Eleven compound test concentrations (0.030-100 μM) were used. Each concentration was done in duplicate.
# Cell viability assessments were performed using a commercial luminescent ATP-based assay kit (CellTiter-Glo, Promega, Madison, Wis.) according to the manufacturer's instructions. Briefly, 40 μL of the cell lysis/ATP detection reagent was added to each well. Plates were incubated on a rocking platform for 10 minutes at room temperature and luminescence was measured using a Wallac Victor 3 plate-reader (Perkin Elmer, Wellesley, Mass.). Cell viability was expressed as a ratio of the signal in the well treated with TNF-α and compound to the signal in the well treated with compound alone. […] EC50 values were calculated using nonlinear regression analysis of sigmoid dose-response (variable slope) curves from plots of log[I] verses viability values.
# [2] = Microsome stability in pooled mouse liver microsomes; assay type: in vitro ADME; conditions: 3 μM compound, 0.5 mg/mL microsome protein, 1 mM NADPH; for microsomal CLint at 3 μM: in vitro intrinsic clearance, N=3, read-out: CLint (μL/minutes/mg protein)
# Description: Microsome stability was determined in pooled mouse liver microsomes. Test compound (3 μM final concentration) along with 0.5 mg/mL microsome protein and 1 mM NADPH was incubated for 0, 5, 15, 30 and 60 minutes. Incubation of test compound and microsomes in the absence of NADPH served as a negative control. The samples were quenched with methanol and centrifuged for 20 minutes at 2500 rpm to precipitate proteins. Sample supernatants were analyzed (N=3) by LC/MS. The In peak area ratio (compound peak area/internal standard peak area) was plotted against time and the slope of the line determined to give the elimination rate constant [k=(−1)(slope)]. The half life (t1/2 in minutes), and the in vitro intrinsic clearance (CLint in μL/min/mg protein) were calculated according to the following equations, where V=incubation volume in μL/mg protein: […]
# [3] = Table 2, Formula (I-a), standard deviation <10%
SMILES,"EC50 ([1]; Table 5, pyrrole compounds) [nM]","EC50 [1, 3] [nM]",other results
CC(NC(=O)c1cccn1C(C)C)c1c(F)cccc1Cl (racemic) [Compound 89],2100,,
CCCCC(NC(=O)c1cccn1C(C)C)c1c(F)cccc1Cl (racemic) [Compound 92],> 20000,,
Fc1cccc(Cl)c1CNCc1snnc1C1CC1 [Compound 13],,,"EC50 ([1]; Table 3, Formula (I-b)): > 100000 nM; necroptosis inhibitory activity in words [1]: inactive"
O=C(NC(=O)c1c(F)cccc1Cl)c1snnc1C1CC1 [Compound 16],,,"EC50 ([1]; Table 3, Formula (I-b)): > 100000 nM; necroptosis inhibitory activity in words [1]: inactive"
O=C(NCc1c(F)cccc1Cl)c1snnc1C1CCC1 [Compound 33],,600,
O=C(NCc1c(F)cccc1Cl)c1snnc1C1CCCC1 [Compound 34],,1900,
O=C(NCc1c(F)cccc1Cl)c1snnc1C1CCCCC1 [Compound 35],,6000,
CC(C)(C)c1nnsc1C(=O)NCc1c(F)cccc1Cl [Compound 36],,18000,
O=C(NCc1c(F)cccc1Cl)c1snnc1-c1ccccc1 [Compound 37],,> 100000,
O=C(NCc1c(F)cccc1F)c1snnc1C1CC1 [Compound 39],,1500,
O=C(NCc1ccccc1F)c1snnc1C1CC1 [Compound 40],,1500,
Cc1cccc(Cl)c1CNC(=O)c1snnc1C1CC1 [Compound 41],,10000,
O=C(NCc1c(F)cccc1C(F)(F)F)c1snnc1C1CC1 [Compound 44],,> 100000,
O=C(NCc1cccc2ccccc12)c1snnc1C1CC1 [Compound 45],,> 100000,
Cn1c(Cl)ccc1C(=O)NCc1c(F)cccc1Cl [Compound 78],740,,half-life at 3 μM [2]: 15.4 min; microsomal CLint at 3 μM [2]: 89.8 ± 3 µL/min/mg
O=C(NCc1c(F)cccc1Cl)c1ccc[nH]1 [Compound 80],> 20000,,
Cc1cc[nH]c1C(=O)NCc1c(F)cccc1Cl [Compound 81],4900,,

SMILES,"EC50 ([1]; Table 5, pyrrole compounds) [nM]","EC50 [1, 3] [nM]",other results
Cc1ccn(C)c1C(=O)NCc1c(F)cccc1Cl [Compound 82],> 20000,,
Cc1ccn(C(C)C)c1C(=O)NCc1c(F)cccc1Cl [Compound 83],7800,,
Cn1cccc1C(=O)NCc1c(F)cccc1Cl [Compound 84],900,,half-life at 3 μM [2]: 17.2 min; microsomal CLint at 3 μM [2]: 80.6 ± 4.4 µL/min/mg
CC(C)n1cccc1C(=O)NCc1c(F)cccc1Cl [Compound 85],440,,
O=C(NCc1c(F)cccc1Cl)c1cccn1Cc1ccccc1 [Compound 86],> 20000,,
CC(c1ccccc1)n1cccc1C(=O)NCc1c(F)cccc1Cl (stereo not drawn) [Compound 87],> 20000,,
CN(Cc1c(F)cccc1Cl)C(=O)c1cccn1C [Compound 88],> 20000,,
CC(C)n1cccc1C(=O)N[C@@H](C)c1c(F)cccc1Cl [Compound 90],520,,
CC(C)n1cccc1C(=O)N[C@H](C)c1c(F)cccc1Cl [Compound 91],> 20000,,
CCn1c(Br)ccc1C(=O)NCc1c(F)cccc1Cl [Compound 93],2400,,
Cn1c(C#N)ccc1C(=O)NCc1c(F)cccc1Cl [Compound 94],340,,half-life at 3 μM [2]: 42.3 min; microsomal CLint at 3 μM [2]: 32.8 ± 2.2 µL/min/mg
CCn1c(C#N)ccc1C(=O)NCc1c(F)cccc1Cl [Compound 95],1900,,
CC(C)n1c(C#N)ccc1C(=O)NCc1c(F)cccc1Cl [Compound 96],1400,,
C[C@H](NC(=O)c1ccc(C#N)n1C)c1c(F)cccc1Cl [Compound 97],,,half-life at 3 μM [2]: 236 min; microsomal CLint at 3 μM [2]: 5.9 ± 2.5 µL/min/mg
Cn1cc(C#N)cc1C(=O)NCc1c(F)cccc1Cl [Compound 98],> 20000,,
CC(C)n1cc(C#N)cc1C(=O)NCc1c(F)cccc1Cl [Compound 99],> 20000,,

# — patent publication US8278344B2, “Heterocyclic inhibitors of necroptosis” (The Brigham and Women's Hospital, Inc., priority 2007, dated 2012)
